Tests used:
LigE = target: T1, LigE (Sphingobium sp. SYK-6, UniProt P27457); test: chiral HPLC of MPHPV conversion; type: biochemical; details: 400 µM racemic MPHPV; 5 mM GSH; 50 mM Tris-HCl pH 7.5; 30 °C; 60 min
T1 construct: full length in pET-16b (pET08660), His-tagged, E. coli BL21(DE3), His SpinTrap purified
T1 sequence (P27457 1-281 limits assumed): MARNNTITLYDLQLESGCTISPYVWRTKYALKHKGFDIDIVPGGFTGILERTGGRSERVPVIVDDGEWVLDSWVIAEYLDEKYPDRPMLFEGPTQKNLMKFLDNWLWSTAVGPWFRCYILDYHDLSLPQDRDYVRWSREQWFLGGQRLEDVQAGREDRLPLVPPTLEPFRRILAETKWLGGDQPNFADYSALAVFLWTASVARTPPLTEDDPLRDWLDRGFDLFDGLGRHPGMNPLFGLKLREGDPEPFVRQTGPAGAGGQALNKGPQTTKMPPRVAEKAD

LigF = target: T2, LigF (Sphingobium sp. SYK-6, UniProt P30347); test: chiral HPLC of MPHPV conversion; type: biochemical; details: 400 µM racemic MPHPV; 5 mM GSH; 50 mM Tris-HCl pH 7.5; 30 °C; 60 min
T2 construct: full length in pET-16b (pET08650), His-tagged, E. coli BL21(DE3), His SpinTrap purified
T2 sequence (P30347 1-257): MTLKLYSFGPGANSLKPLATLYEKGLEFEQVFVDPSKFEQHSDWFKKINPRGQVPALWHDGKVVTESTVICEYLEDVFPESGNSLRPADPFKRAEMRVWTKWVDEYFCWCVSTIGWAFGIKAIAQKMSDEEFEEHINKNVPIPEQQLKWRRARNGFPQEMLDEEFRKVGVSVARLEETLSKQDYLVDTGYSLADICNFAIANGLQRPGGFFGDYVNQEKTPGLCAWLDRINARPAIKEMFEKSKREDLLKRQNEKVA

| SMILES | chiral HPLC of MPHPV conversion (LigE) | chiral HPLC of MPHPV conversion (LigF) |
| --- | --- | --- |
| COc1cc(C(=O)[C@@H](CO)Oc2ccccc2OC)ccc1O [(βR)-MPHPV] | LigF and LigE completely converted (βS)-MPHPV and (βR)-MPHPV, respectively | – |
| COc1cc(C(=O)[C@H](CO)Oc2ccccc2OC)ccc1O [(βS)-MPHPV] | – | LigF and LigE completely converted (βS)-MPHPV and (βR)-MPHPV, respectively |
